In publication PMC11110727, “Exploiting thiol-functionalized benzosiloxaboroles for achieving diverse substitution patterns – synthesis, characterization and biological evaluation of promising antibacterial agents” (RSC Medicinal Chemistry, 2024):
≈ marks a conversion by molar mass, not a printed value. Like-named read-outs stand apart in the source and are kept apart here.

How the values were obtained:
[1] = tested on: Staphylococcus aureus, MSSA and MRSA strains; test: Antibacterial activity against S. aureus strains (text summaries); type: cell-based; settings: for MBC: lowest MBC values; for Eagle effect (paradoxical growth) during MBC determination: S. aureus ATCC 6538P and five MRSA clinical strains
Procedure: (§1) Direct antimicrobial activity was determined against the following standard strains: (1) Gram-positive cocci: methicillin-sensitive Staphylococcus aureus ATCC 6538P (MSSA), methicillin-resistant S. aureus subsp. aureus ATCC 43300 (MRSA), S. epidermidis ATCC 12228, Enterococcus faecium ATCC 6057, E. faecalis ATCC 29212, Bacillus subtilis ATCC 6633; (2) Gram-negative bacteria from Enterobacteriales order: Klebsiella pneumoniae ATCC 13883, Escherichia coli ATCC 25922, Enterobacter cloacae DSM 6234, Proteus mirabilis ATCC 12453, Serratia marcescens ATCC 13880; (3) Gram-negative non-fermentative rods: Acinetobacter baumannii ATCC 19606, Pseudomonas aeruginosa ATCC 27853, Stenotrophomonas maltophilia ATCC 12714, S. maltophilia ATCC 13637, Burkholderia cepacia ATCC 25416, Bordetella bronchiseptica ATCC 4617; (4) yeasts: Candida albicans ATCC 90028, C. krusei ATCC 6258, C. parapsilosis ATCC 22019, C. tropicalis (Castellani) Berkhout ATCC 750, C. tropicalis IBA 171, C. guilliermondii IBA 155, and Saccharomyces cerevisiae ATCC 9763. Moreover, 5 clinical strains of methicillin-resistant S. aureus were also included: NMI 664 K, NMI 1576 K, NMI 1712 K, NMI 1991 K, and NMI 2541 K. All strains were stored at −80 °C. Prior to testing, each bacterial strain was subcultured twice on tryptic soy agar TSA (bioMerieux) medium and yeast strains on Sabouraud dextrose agar (bioMerieux) for 24–48 h at 30 °C to ensure viability. The antimicrobial activity was evaluated as previously described[26] by the disc-diffusion method and the MIC determination assays according to the EUCAST (ref. [71] and [72]) and CLSI (ref. [53] and [73]) recommendations. Assessment of bactericidal (MBC) and fungicidal (MFC) activities was performed according to the CLSI recommendations.[54,74] The following reference agents were used: fluconazole (in the case of fungi), linezolid (for Gram-positive bacteria), and nitrofurantoin (for Gram-negative rods). The new benzosiloxaboroles were dissolved in DMSO (Sigma).

[2] = tested on: C. tropicalis IBA 171; test: Antifungal activity: MIC/MFC, disc-diffusion; type: cell-based; settings: Candida tropicalis, IBA171; read-out: MIC
Summary of the method: (§2)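 MIC values come from CLSI/EUCAST-based dilution testing, with cidal concentrations (MBC or MFC) assessed by CLSI procedures and zones by disc diffusion. Compounds were prepared in DMSO.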

[3] = tested on: C. tropicalis ATCC 750; test: Antifungal activity: MIC/MFC, disc-diffusion; type: cell-based; settings: Candida tropicalis, ATCC750; read-out: MIC
Summary of the method: as §2

[4] = tested on: C. parapsilosis ATCC 22019; test: Antifungal activity: MIC/MFC, disc-diffusion; type: cell-based; settings: Lodderomyces parapsilosis, ATCC22019; read-out: MIC
Summary of the method: as §2

[5] = tested on: S. aureus NMI 1576 K MRSA; test: Antibacterial activity against clinical MRSA: MIC/MBC; type: cell-based; settings: Staphylococcus aureus, NMI 1576 K MRSA
Procedure: as §1

[6] = tested on: S. aureus NMI 2541 K MRSA; test: as above; type: cell-based; settings: Staphylococcus aureus, NMI 2541 K MRSA
Procedure: as §1

[7] = tested on: S. aureus NMI 1991 K MRSA; test: as above; type: cell-based; settings: Staphylococcus aureus, NMI 1991 K MRSA
Procedure: as §1

[8] = tested on: S. aureus NMI 1712 K MRSA; test: as above; type: cell-based; settings: Staphylococcus aureus, NMI 1712 K MRSA
Procedure: as §1

[9] = tested on: S. aureus NMI 664 K MRSA; test: as above; type: cell-based; settings: Staphylococcus aureus, NMI 664 K MRSA
Procedure: as §1

[10] = tested on: Human normal lung fibroblasts MRC-5; test: MTT-based viability (cytotoxicity) assay
Summary of the method: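 MRC-5 pd30 human lung fibroblasts in supplemented MEME at 37 °C, 5% CO2; viability by MTT, absorbance 570 nm, triplicate, as percent of control cells. Selectivity index taken as IC50/MIC against S. aureus MRSA strains.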

[11] = read-out: MBC (first MBC where Eagle effect)
[12] = read-out: second MBC (Eagle effect)

C[Si]1(C)OB(O)c2cc(F)c(S)c(F)c21 [Compound 1e, 5,7-Difluoro-6-mercapto-1,1-dimethylbenzo[c][1,2,5]oxasilaborol-3(1H)-ol]
MBC ([1]; Staphylococcus aureus): 25 to 50 µg/mL (≈ 102 to 203 µM)
MIC [2]: 200 µg/mL (≈ 813 µM)
MIC [3]: 400 µg/mL (≈ 1630 µM)
MIC [4]: 400 µg/mL (≈ 1630 µM)

C[Si]1(C)OB(O)c2ccc(S)c(F)c21 [Compound 2e, 7-Fluoro-6-mercapto-1,1-dimethylbenzo[c][1,2,5]oxasilaborol-3(1H)-ol]
MBC ([1]; Staphylococcus aureus): 25 to 50 µg/mL (≈ 110 to 219 µM)
MIC [2]: > 100 µg/mL
MIC [3]: > 100 µg/mL
MIC [4]: > 100 µg/mL

COC(=O)CCSc1ccc2c(c1F)[Si](C)(C)OB2O [Compound 4, Methyl 3-((7-fluoro-3-hydroxy-1,1-dimethyl-1,3-dihydrobenzo[c][1,2,5]oxasilaborol-6-yl)thio)propanoate]
Eagle effect (paradoxical growth) during MBC determination [1]: Eagle effect
MIC [2]: > 400 µg/mL
MIC [3]: > 400 µg/mL
MIC [4]: 400 µg/mL (≈ 1270 µM)

C[Si]1(C)OB(O)c2cc(F)c(SCCC#N)c(F)c21 [Compound 6, 3-((5,7-Difluoro-3-hydroxy-1,1-dimethyl-1,3-dihydrobenzo[c][1,2,5]oxasilaborol-6-yl)thio)propanenitrile]
Eagle effect (paradoxical growth) during MBC determination [1]: Eagle effect
MIC ([1]; Staphylococcus aureus, both MSSA and MRSA strains, read-out: MIC values against Staphylococcus aureus): 1.56 to 12.5 µg/mL (≈ 5.21 to 41.8 µM)
MIC [2]: > 400 µg/mL
MIC [3]: > 400 µg/mL
MIC [4]: > 400 µg/mL
MBC [5, 11]: 25 µg/mL (≈ 83.6 µM)
MIC ([5]; read-out: MIC): 12.5 µg/mL (≈ 41.8 µM)
MBC [5, 12]: > 400 µg/mL
MBC [6, 11]: 25 µg/mL (≈ 83.6 µM)
MIC ([6]; read-out: MIC): 12.5 µg/mL (≈ 41.8 µM)
MBC [6, 12]: > 400 µg/mL
MBC [7, 11]: 25 µg/mL (≈ 83.6 µM)
MIC ([7]; read-out: MIC): 12.5 µg/mL (≈ 41.8 µM)
MBC [7, 12]: > 400 µg/mL
MBC [8, 11]: 12.5 µg/mL (≈ 41.8 µM)
MIC ([8]; read-out: MIC): 12.5 µg/mL (≈ 41.8 µM)
MBC [8, 12]: > 400 µg/mL
MBC [9, 11]: 25 µg/mL (≈ 83.6 µM)
MIC ([9]; read-out: MIC): 12.5 µg/mL (≈ 41.8 µM)
MBC [9, 12]: > 400 µg/mL
viability of MRC-5 ([10]; 6.25 µg·mL−1, 48 h): 104.0±5.7 % of control ± SD
viability of MRC-5 ([10]; 12.5 µg·mL−1, 48 h): 112.1±1.8 % of control ± SD
viability of MRC-5 ([10]; 25 µg·mL−1, 48 h): 104.7±6.7 % of control ± SD
viability of MRC-5 ([10]; 50 µg·mL−1, 48 h): 108.3±3.0 % of control ± SD
viability of MRC-5 ([10]; 100 µg·mL−1, 48 h): 90.4±0.5 % of control ± SD
viability of MRC-5 ([10]; 200 µg·mL−1, 48 h): 43.6±5.1 % of control ± SD
viability of MRC-5 ([10]; 400 µg·mL−1, 48 h): 29.5±5.8 % of control ± SD
IC50 ([10]; Homo sapiens, MRC5, 48 h): 140 µg/mL (≈ 468 µM)
